Test results published in patent US20240398823A1, “DUAL INHIBITOR OF HISTONE DEACETYLASE 6 AND HEAT SHOCK PROTEIN 90” (TAIPEI MEDICAL UNIVERSITY, priority 2021, published 2024).

Assays:
[1] = system: HCT116; experiment: MTT assay, survival of human colorectal cancer cells HCT116; type: cell-based; settings: HCT-116, 48 h, mean ± SD, read-out: Human cell lines HCT116 IC50(μM ± SD)
Experimental: The effects on cell viability of the HSP90/HDAC6 dual inhibitors as described in Synthesis Examples (such as Compounds 63, 64, and 66 to 76) were evaluated. Cells were seeded in 96-well plates (5000 cells/well). The next day, the serially diluted drugs were added into the wells and incubated at 37° C. for 48 h. Cell viability was measured by the MTT assay and is expressed as percentages of surviving drug-treated cells relative to untreated control cells. The IC50 was calculated by non-linear regression analysis.
The inhibitory effect of the HSP90/HDAC6 dual inhibitors as described in Synthesis Examples on the survival rate of human colorectal cancer cells HCT116 is evaluated using MTT assay.

[2] = biological target: T1, HDAC3 (Homo sapiens, UniProt O15379); experiment: HDAC enzymes inhibition assay (Reaction Biology), HDAC3; type: biochemical; settings: 10-dose, 3-fold dilution from 10 μM, single experiment
T1 construct: Reaction Biology Corporation (ran the assay as a service)
T1 sequence (O15379 whole entry): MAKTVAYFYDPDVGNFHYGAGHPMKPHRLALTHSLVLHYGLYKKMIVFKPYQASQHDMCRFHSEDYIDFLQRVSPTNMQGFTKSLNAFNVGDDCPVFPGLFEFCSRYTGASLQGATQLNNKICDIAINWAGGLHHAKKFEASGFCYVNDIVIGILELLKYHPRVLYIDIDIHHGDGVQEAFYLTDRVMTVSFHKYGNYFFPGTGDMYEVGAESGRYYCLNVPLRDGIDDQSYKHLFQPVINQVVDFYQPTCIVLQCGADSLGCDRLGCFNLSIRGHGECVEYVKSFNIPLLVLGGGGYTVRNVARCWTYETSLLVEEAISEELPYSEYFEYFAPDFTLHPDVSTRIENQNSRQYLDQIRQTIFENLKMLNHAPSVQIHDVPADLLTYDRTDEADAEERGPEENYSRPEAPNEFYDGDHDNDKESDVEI
T1 sequence (Q9Y618 395-489 partner limits assumed): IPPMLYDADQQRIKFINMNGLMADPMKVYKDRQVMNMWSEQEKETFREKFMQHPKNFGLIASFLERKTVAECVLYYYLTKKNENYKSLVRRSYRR

[3] = biological target: T2, HDAC6 (Homo sapiens, UniProt Q9UBN7); experiment: HDAC enzymes inhibition assay (Reaction Biology), HDAC6; type: biochemical; settings: 10-dose, 3-fold dilution from 10 μM, single experiment
T2 construct: Reaction Biology Corporation (ran the assay as a service)
T2 sequence (Q9UBN7 1-1215): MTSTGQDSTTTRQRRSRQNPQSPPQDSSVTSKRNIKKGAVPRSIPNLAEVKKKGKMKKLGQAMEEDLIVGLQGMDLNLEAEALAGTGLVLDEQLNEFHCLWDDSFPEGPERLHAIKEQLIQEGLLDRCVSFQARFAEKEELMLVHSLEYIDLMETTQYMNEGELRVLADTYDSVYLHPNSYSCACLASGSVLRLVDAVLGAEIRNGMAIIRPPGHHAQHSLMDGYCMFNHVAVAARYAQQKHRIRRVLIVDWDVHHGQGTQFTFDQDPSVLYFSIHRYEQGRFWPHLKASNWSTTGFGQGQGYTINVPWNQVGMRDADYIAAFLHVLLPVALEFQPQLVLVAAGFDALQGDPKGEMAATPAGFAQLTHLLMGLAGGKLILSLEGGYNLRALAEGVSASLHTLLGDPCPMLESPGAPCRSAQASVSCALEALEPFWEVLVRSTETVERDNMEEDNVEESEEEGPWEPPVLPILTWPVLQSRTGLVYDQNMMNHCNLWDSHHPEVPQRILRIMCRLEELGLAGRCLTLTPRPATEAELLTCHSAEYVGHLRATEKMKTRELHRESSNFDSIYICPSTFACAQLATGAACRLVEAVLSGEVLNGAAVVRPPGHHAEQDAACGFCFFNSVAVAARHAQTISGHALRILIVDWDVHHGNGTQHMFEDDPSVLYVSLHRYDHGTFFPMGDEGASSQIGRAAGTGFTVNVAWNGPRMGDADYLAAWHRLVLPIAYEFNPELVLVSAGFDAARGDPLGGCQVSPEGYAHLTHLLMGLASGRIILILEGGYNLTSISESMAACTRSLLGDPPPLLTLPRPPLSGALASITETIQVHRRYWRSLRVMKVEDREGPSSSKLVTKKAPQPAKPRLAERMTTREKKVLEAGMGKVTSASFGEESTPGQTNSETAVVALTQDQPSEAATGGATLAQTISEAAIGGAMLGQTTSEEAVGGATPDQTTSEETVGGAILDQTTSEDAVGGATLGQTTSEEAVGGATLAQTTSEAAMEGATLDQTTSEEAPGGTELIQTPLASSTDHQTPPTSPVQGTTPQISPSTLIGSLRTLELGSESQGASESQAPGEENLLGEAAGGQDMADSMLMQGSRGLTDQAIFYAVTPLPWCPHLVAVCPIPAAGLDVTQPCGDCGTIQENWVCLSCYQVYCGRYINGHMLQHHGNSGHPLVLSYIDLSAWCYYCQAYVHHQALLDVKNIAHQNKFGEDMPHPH

[4] = biological target: T3, HSP90α (Homo sapiens, UniProt P07900); experiment: HSP90 inhibition assay, FITC-geldanamycin competition fluorescence polarization, HSP90α; type: binding; settings: FITC-GM competition
T3 construct: Reaction Biology Corporation (ran the assay as a service)

[5] = biological target: T4, HDAC1 (Homo sapiens, UniProt Q13547); experiment: HDAC enzymes inhibition assay (Reaction Biology), HDAC1; type: biochemical; settings: 10-dose, 3-fold dilution from 10 μM, single experiment
T4 construct: Reaction Biology Corporation (ran the assay as a service)
T4 sequence (Q13547 whole entry): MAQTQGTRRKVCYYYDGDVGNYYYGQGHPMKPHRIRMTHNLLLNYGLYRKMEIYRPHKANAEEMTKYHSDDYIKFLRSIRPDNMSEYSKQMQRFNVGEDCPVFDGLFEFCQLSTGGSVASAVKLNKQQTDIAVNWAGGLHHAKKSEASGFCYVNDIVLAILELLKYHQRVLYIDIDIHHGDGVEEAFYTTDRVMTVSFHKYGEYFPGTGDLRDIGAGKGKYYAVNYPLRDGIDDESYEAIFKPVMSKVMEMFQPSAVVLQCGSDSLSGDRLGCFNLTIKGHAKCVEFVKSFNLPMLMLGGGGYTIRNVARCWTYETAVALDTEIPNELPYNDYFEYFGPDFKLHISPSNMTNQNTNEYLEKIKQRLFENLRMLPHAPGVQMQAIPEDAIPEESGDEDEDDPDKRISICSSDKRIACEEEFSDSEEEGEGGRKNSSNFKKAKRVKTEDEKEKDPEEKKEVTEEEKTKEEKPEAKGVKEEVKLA

[6] = biological target: T5, HSP90β (Homo sapiens, UniProt P08238); experiment: HSP90 inhibition assay, FITC-geldanamycin competition fluorescence polarization, HSP90β; type: binding; settings: FITC-GM competition
T5 construct: Reaction Biology Corporation (ran the assay as a service)
T5 sequence (P08238 whole entry): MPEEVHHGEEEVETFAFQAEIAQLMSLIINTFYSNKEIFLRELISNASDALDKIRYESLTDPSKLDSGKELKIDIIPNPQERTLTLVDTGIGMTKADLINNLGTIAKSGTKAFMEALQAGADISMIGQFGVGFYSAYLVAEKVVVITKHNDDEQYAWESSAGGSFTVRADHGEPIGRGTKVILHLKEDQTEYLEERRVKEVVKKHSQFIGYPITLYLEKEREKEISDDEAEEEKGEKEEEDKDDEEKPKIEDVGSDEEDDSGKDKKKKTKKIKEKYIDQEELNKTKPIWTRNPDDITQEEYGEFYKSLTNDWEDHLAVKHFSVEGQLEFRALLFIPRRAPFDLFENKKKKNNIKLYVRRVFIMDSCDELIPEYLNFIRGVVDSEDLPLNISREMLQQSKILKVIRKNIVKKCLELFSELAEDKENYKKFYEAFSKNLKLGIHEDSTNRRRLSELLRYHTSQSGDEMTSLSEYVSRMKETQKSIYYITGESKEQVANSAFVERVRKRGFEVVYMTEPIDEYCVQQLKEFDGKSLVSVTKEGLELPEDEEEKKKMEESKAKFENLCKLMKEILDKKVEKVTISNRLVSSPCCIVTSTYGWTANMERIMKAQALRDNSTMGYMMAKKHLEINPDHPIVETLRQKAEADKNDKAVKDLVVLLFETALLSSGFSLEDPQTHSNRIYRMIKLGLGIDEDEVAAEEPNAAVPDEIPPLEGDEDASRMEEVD

Row | Compound | IC50 [2] | IC50 [3] | IC50 [4] | IC50 [5] | IC50 [6] | IC50 [1]
1 | CC(C)c1cc(C(=O)N(C)Cc2ccc(C(=O)NO)cc2)c(O)cc1O [Compound 63, 2,4-dihydroxy-N-(4-(hydroxycarbamoyl)benzyl)-5-isopropyl-N-methylbenzamide] | 3620 nM | 5.93 nM | 25.2 nM | 1760 nM | 38.8 nM | 1.09 ± 0.08 µM
2 | CCN(Cc1ccc(C(=O)NO)cc1)C(=O)c1cc(C(C)C)c(O)cc1O [Compound 64, N-ethyl-2,4-dihydroxy-N-(4-(hydroxycarbamoyl)benzyl)-5-isopropylbenzamide] | > 10000 nM | 23 nM | 93.9 nM | 5230 nM | 190 nM | 3.69 ± 0.09 µM
3 | CC(C)c1cc(C(=O)N(Cc2ccc(C(=O)NO)cc2)c2ccc3c(c2)OCO3)c(O)cc1O [Compound 70, N-(benzo[d][1,3]dioxol-5-yl)-2,4-dihydroxy-N-(4-(hydroxycarbamoyl)benzyl)-5-isopropylbenzamide] | 2200 nM | 12.9 nM | 39.9 nM | 1120 nM | 95.6 nM | 0.25 ± 0.04 µM
4 | CC(C)c1cc(C(=O)N(Cc2ccc(C(=O)NO)cc2)c2ccc(N3CCOCC3)cc2)c(O)cc1O [Compound 71, 2,4-dihydroxy-N-(4-(hydroxycarbamoyl)benzyl)-5-isopropyl-N-(4-morpholinophenyl)benzamide] | 691 nM | 16 nM | 16.3 nM | 275 nM | 18.7 nM | 0.47 ± 0.02 µM
5 | CC(C)c1cc(C(=O)N(Cc2ccc(C(=O)NO)cc2)c2ccc(N3CCN(C)CC3)cc2)c(O)cc1O [Compound 73, 2,4-dihydroxy-N-(4-(hydroxycarbamoyl)benzyl)-5-isopropyl-N-(4-(4-methylpiperazin-1-yl)phenyl)benzamide] | 645 nM | 5.88 nM | 36.7 nM | 173 nM | 60.5 nM | 1.25 ± 0.13 µM
6 | CC(C)c1cc(C(=O)N(Cc2ccc(C(=O)NO)cc2)c2ccc(N3CCCCC3)cc2)c(O)cc1O [Compound 74, 2,4-dihydroxy-N-(4-(hydroxycarbamoyl)benzyl)-5-isopropyl-N-(4-(piperidin-1-yl)phenyl)benzamide] | 2700 nM | 70.5 nM | 98.7 nM | 1230 nM | 373 nM | 4.83 ± 0.47 µM

Now from value to compound, other results behind:

Row | IC50 [2] | IC50 [3] | IC50 [4] | IC50 [5] | IC50 [6] | Compound | IC50 [1]
7 | 4740 nM | 23.9 nM | 54.5 nM | 3680 nM | 200 nM | CC(C)c1cc(C(=O)N(Cc2ccc(C(=O)NO)cc2)c2ccccc2)c(O)cc1O [Compound 66, 2,4-dihydroxy-N-(4-(hydroxycarbamoyl)benzyl)-5-isopropyl-N-phenylbenzamide] | 0.9 ± 0.09 µM
8 | 3140 nM | 22.9 nM | 40.8 nM | 1690 nM | 103 nM | CC(C)c1cc(C(=O)N(Cc2ccc(C(=O)NO)cc2)c2ccc(F)cc2)c(O)cc1O [Compound 67, N-(4-fluorophenyl)-2,4-dihydroxy-N-(4-(hydroxycarbamoyl)benzyl)-5-isopropylbenzamide] | 4.61 ± 0.11 µM
9 | 3030 nM | 17.2 nM | 59.9 nM | 1810 nM | 159 nM | CC(C)c1cc(C(=O)N(Cc2ccc(C(=O)NO)cc2)c2ccc(Cl)cc2)c(O)cc1O [Compound 68, N-(4-chlorophenyl)-2,4-dihydroxy-N-(4-(hydroxycarbamoyl)benzyl)-5-isopropylbenzamide] | 5.28 ± 0.92 µM
10 | 2170 nM | 9.17 nM | 91.4 nM | 1290 nM | 272 nM | CC(C)c1cc(C(=O)N(Cc2ccc(C(=O)NO)cc2)c2ccc(I)cc2)c(O)cc1O [Compound 69, 2,4-dihydroxy-N-(4-(hydroxycarbamoyl)benzyl)-N-(4-iodophenyl)-5-isopropylbenzamide] | 1.16 ± 0.01 µM
11 | 2190 nM | 13.7 nM | 32.2 nM | 1070 nM | 117 nM | CC(C)c1cc(C(=O)N(Cc2ccc(C(=O)NO)cc2)c2ccc(N(C)C)cc2)c(O)cc1O [Compound 72, N-(4-(dimethylamino)phenyl)-2,4-dihydroxy-N-(4-(hydroxycarbamoyl)benzyl)-5-isopropylbenzamide] | 0.9 ± 0.18 µM
12 | 2840 nM | 6.54 nM | 35 nM | 961 nM | 51.8 nM | CC(C)c1cc(C(=O)N(Cc2ccc(C(=O)NO)cc2)c2ccc(O)cc2)c(O)cc1O [Compound 76, 2,4-Dihydroxy-N-(4-hydroxycarbamoyl-benzyl)-N-(4-hydroxy-phenyl)-5-isopropyl-benzamide] | 0.83 ± 0.01 µM
